Measurements: the supplement of paper PMC8443649

Tested on: PATU8988T-SmBKRAS-LgBCRAF
Experiment: KRAS:CRAF interaction luminescence (EndoBind) relative to DMSO control (fold of DMSO); higher = more KRAS-CRAF complex
Description: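 EndoBind assay: PATU8988T cells with CRISPR knock-in SmB-KRAS(G12V) and LgB-CRAF, seeded with RealTime-Glo pro-substrate (1:2000) in 384-well plates. Cells were treated with RAF inhibitors (GDC0879, LY3009120, NVP-LHS533) or the MEK inhibitor Selumetinib, and the same plate was read for split-NanoLuc luminescence at several time points. Signal is normalised to the DMSO-treated wells at each time point; n=3 wells.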

CNc1ncc2cc(-c3cc(NC(=O)NCCC(C)(C)C)c(F)cc3C)c(C)nc2n1
KRAS:CRAF interaction luminescence
Conditions | time after treatment 0 h | time after treatment 1 h | time after treatment 4 h | time after treatment 6 h | time after treatment 9 h | time after treatment 12 h
0.00375 µM | 0.987 | 0.979 | 1.01 | 1.05 | 1.09 | 1.15
0.0075 µM | 0.976 | 0.98 | 1.04 | 1.1 | 1.15 | 1.24
0.015 µM | 0.996 | 0.98 | 1.07 | 1.16 | 1.22 | 1.32
0.03 µM | 0.983 | 0.968 | 1.14 | 1.24 | 1.35 | 1.45
0.06 µM | 1 | 0.994 | 1.21 | 1.34 | 1.46 | 1.58
0.12 µM | 1 | 0.996 | 1.26 | 1.42 | 1.58 | 1.7
0.24 µM | 0.955 | 0.991 | 1.35 | 1.57 | 1.76 | 1.96
0.46875 µM | 0.987 | 1.03 | 1.42 | 1.67 | 1.84 | 2.05
0.9375 µM | 0.982 | 1.06 | 1.51 | 1.75 | 1.91 | 2.07
1.875 µM | 1 | 1.09 | 1.54 | 1.8 | 1.91 | 2.07
3.75 µM | 0.971 | 1.08 | 1.59 | 1.77 | 1.89 | 2.04
7.5 µM | 1.03 | 1.16 | 1.57 | 1.74 | 1.8 | 1.92
15 µM | 1.03 | 1.14 | 1.47 | 1.59 | 1.62 | 1.78
30 µM | – | – | 1.13 | – | – | –

OCCn1cc(-c2ccc3c(c2)CC/C3=N\O)c(-c2ccncc2)n1 [GDC0879]
KRAS:CRAF interaction luminescence
Conditions | time after treatment 0 h | time after treatment 1 h | time after treatment 4 h | time after treatment 6 h | time after treatment 9 h | time after treatment 12 h
0.00375 µM | 0.967 | 0.989 | 0.964 | 0.967 | 0.958 | 0.9832
0.0075 µM | 1.03 | 1.03 | 0.976 | 0.964 | 0.958 | 0.982
0.015 µM | 0.987 | 1.03 | 0.985 | 0.966 | 0.953 | 0.969
0.03 µM | 0.989 | 1.1 | 1.03 | 1.03 | 1.01 | 1.01
0.06 µM | 0.977 | 1.22 | 1.1 | 1.09 | 1.07 | 1.08
0.12 µM | 0.964 | 1.27 | 1.19 | 1.18 | 1.14 | 1.16
0.24 µM | 0.983 | 1.4 | 1.4 | 1.38 | 1.36 | 1.36
0.46875 µM | 1.01 | 1.5 | 1.62 | 1.61 | 1.58 | 1.59
0.9375 µM | 1.01 | 1.53 | 1.75 | 1.81 | 1.74 | 1.78
1.875 µM | 1.03 | 1.56 | 1.83 | 1.92 | 1.87 | 1.86
3.75 µM | 1.03 | 1.54 | 1.85 | 1.93 | 1.9 | 1.99
7.5 µM | 1.05 | 1.54 | 1.87 | 1.98 | 1.95 | 2.05
15 µM | 1.02 | 1.46 | 1.8 | 1.99 | 2.03 | 2.15
30 µM | – | – | 1.66 | – | – | –

Cn1cnc2c(F)c(Nc3ccc(Br)cc3Cl)c(C(=O)NOCCO)cc21 [Selumetinib]
KRAS:CRAF interaction luminescence
Conditions | time after treatment 0 h | time after treatment 1 h | time after treatment 4 h | time after treatment 6 h | time after treatment 9 h | time after treatment 12 h
0.00375 µM | 0.968 | 0.983 | 0.958 | 0.954 | 0.937 | 0.963
0.0075 µM | 0.975 | 0.977 | 0.949 | 0.931 | 0.943 | 0.974
0.015 µM | 1.01 | 0.979 | 0.958 | 0.953 | 0.939 | 0.934
0.03 µM | 0.961 | 0.971 | 0.973 | 0.97 | 0.956 | 0.965
0.06 µM | 0.995 | 0.976 | 0.976 | 0.935 | 0.945 | 0.984
0.12 µM | 0.994 | 0.979 | 0.974 | 0.975 | 0.948 | 0.973
0.24 µM | 0.994 | 0.993 | 0.988 | 0.975 | 0.96 | 0.963
0.46875 µM | 1 | 0.995 | 1 | 0.985 | 0.982 | 0.992
0.9375 µM | 1.01 | 1.04 | 1.02 | 1.03 | 0.994 | 1.01
1.875 µM | 0.978 | 1.07 | 1.06 | 1.06 | 1.04 | 1.06
3.75 µM | 0.99 | 1.14 | 1.12 | 1.1 | 1.1 | 1.11
7.5 µM | 1.01 | 1.02 | 1 | 0.995 | 0.981 | 0.998
15 µM | 1.02 | 1.02 | 1 | 0.983 | 0.974 | 0.987
30 µM | – | – | 0.953 | – | – | –
